Source: the supplement of paper PMC10307832

Experiments:
Test in all cases: relative viability (nuclei count vs DMSO), 5 days (fraction); higher = more cells survive
Sorafenib + OSI-027 = compound: CNC(=O)c1cc(Oc2ccc(NC(=O)Nc3ccc(Cl)c(C(F)(F)F)c3)cc2)ccn1 [Sorafenib] + COc1cccc2cc(-c3nc([C@H]4CC[C@H](C(=O)O)CC4)n4ncnc(N)c34)[nH]c12 [OSI-027] (partner 0.5 µM)
Method in brief: (§1)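 Cells from lung cancer lines were seeded into 1536-well plates and, one day later, dosed by pin tool. Treatments were either a single drug or a fixed dose of an anchor drug with five library-drug doses (not always all listed) in √10 steps. After 5 days, nuclei were stained in a one-step fixation (final 0.05% Triton X-100, 1% formaldehyde, 1 ug/ml Hoechst) and counted on 4× images, and relative viability is the treated-to-vehicle nuclei ratio, as the median of duplicate plates.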

Sorafenib + Phenformin = compound: CNC(=O)c1cc(Oc2ccc(NC(=O)Nc3ccc(Cl)c(C(F)(F)F)c3)cc2)ccn1 [Sorafenib] + N=C(N)NC(=N)NCCc1ccccc1 [Phenformin] (partner 250 µM)
Method in brief: as §1

Sorafenib + Palbociclib = compound: CNC(=O)c1cc(Oc2ccc(NC(=O)Nc3ccc(Cl)c(C(F)(F)F)c3)cc2)ccn1 [Sorafenib] + CC(=O)c1c(C)c2cnc(Nc3ccc(N4CCNCC4)cn3)nc2n(C2CCCC2)c1=O [Palbociclib] (partner 0.5 µM)
Method in brief: as §1

Sorafenib + Luminespib = compound: CNC(=O)c1cc(Oc2ccc(NC(=O)Nc3ccc(Cl)c(C(F)(F)F)c3)cc2)ccn1 [Sorafenib] + CCNC(=O)c1noc(-c2cc(C(C)C)c(O)cc2O)c1-c1ccc(CN2CCOCC2)cc1 [Luminespib] (partner 0.01 µM)
Method in brief: as §1

Sorafenib + Pictilisib = compound: CNC(=O)c1cc(Oc2ccc(NC(=O)Nc3ccc(Cl)c(C(F)(F)F)c3)cc2)ccn1 [Sorafenib] + CS(=O)(=O)N1CCN(Cc2cc3nc(-c4cccc5[nH]ncc45)nc(N4CCOCC4)c3s2)CC1 [Pictilisib] (partner 1 µM)
Method in brief: as §1

Cell Line	relative viability (Sorafenib + OSI-027; first compound 0.08 µM)	relative viability (Sorafenib + OSI-027; first compound 0.253 µM)	relative viability (Sorafenib + OSI-027; first compound 2.53 µM)	relative viability (Sorafenib + OSI-027; first compound 8 µM)	relative viability (Sorafenib + Phenformin; first compound 0.08 µM)	relative viability (Sorafenib + Phenformin; first compound 0.253 µM)	relative viability (Sorafenib + Phenformin; first compound 2.53 µM)	relative viability (Sorafenib + Phenformin; first compound 8 µM)	relative viability (Sorafenib + Palbociclib; first compound 0.08 µM)	relative viability (Sorafenib + Palbociclib; first compound 0.253 µM)	relative viability (Sorafenib + Palbociclib; first compound 2.53 µM)	relative viability (Sorafenib + Palbociclib; first compound 8 µM)	relative viability (Sorafenib + Luminespib; first compound 0.08 µM)	relative viability (Sorafenib + Luminespib; first compound 0.253 µM)	relative viability (Sorafenib + Luminespib; first compound 2.53 µM)	relative viability (Sorafenib + Luminespib; first compound 8 µM)	relative viability (Sorafenib + Pictilisib; first compound 0.08 µM)	relative viability (Sorafenib + Pictilisib; first compound 0.253 µM)	relative viability (Sorafenib + Pictilisib; first compound 2.53 µM)	relative viability (Sorafenib + Pictilisib; first compound 8 µM)
NCI-H1651	0.777	0.687	0.655	0.622	0.389	0.307	0.318	0.148	0.556	0.52	0.533	0.516	0.965	0.778	0.958	0.319	0.688	0.517	0.555	0.445
NCI-H1793	0.29	0.303	0.299	0.162	0.453	0.329	0.418	0.293	0.354	0.376	0.465	0.411	0.23	0.207	0.199	0.187	0.313	0.333	0.256	0.195
PC-14	0.96	–	0.745	0.321	0.632	0.429	0.696	0.591	0.62	0.512	0.518	0.158	0.138	0.138	0.19	0.138	0.748	0.542	0.625	0.344
COR-L23	0.874	0.725	0.754	–	0.44	0.419	0.455	0.287	0.301	0.288	0.319	0.264	0.731	0.688	0.525	0.135	0.952	0.881	0.745	0.676
NCI-H2342	0.676	0.522	0.542	0.482	0.67	0.487	0.528	0.381	0.53	0.523	0.556	0.533	0.662	0.637	0.597	0.582	–	–	–	–
NCI-H650	0.541	0.363	0.451	0.504	0.45	0.399	0.461	0.428	0.435	0.303	0.268	0.355	0.809	0.639	0.605	0.677	0.911	0.751	0.696	0.746
NCI-H2023	0.51	0.338	0.387	0.19	0.51	0.395	0.374	0.174	0.49	0.444	0.435	0.106	0.828	0.761	0.826	0.136	0.301	0.269	0.263	0.181
NCI-H2087	0.658	0.556	0.455	0.3	0.467	0.403	0.389	0.14	0.245	0.209	0.15	0.159	0.192	0.183	0.236	0.123	1.02	0.787	0.609	0.349
